Reference: patent US20230104936A1, “TRPML MODULATORS” (Casma Therapeutics, Inc., priority 2019, published 2023)

Test system: TFEB
Experiment: TFEB nuclear translocation assay, HeLa wt cells
Format: cell-based
Details: 2 hrs compound treatment, Table 1 does not say HeLa wt or TRPML1 KO
Description: For the TFEB nuclear translocation assay, HeLa wt or HeLa TRPML1 KO cells were plated at 2700 cells/well into black-walled, 384-well Cell carrier Ultra tissue culture treated plates in complete media and incubated overnight. The next day, cells are treated for 2 hrs with compounds and incubated at 37° C. Cells were then fixed for 30 minutes at room temperature in 4% final PFA and washed five times with 90 μL PBS. PBS is aspirated from the wells and the cells are blocked with 7.5 μL blocking buffer (1:1 PBS/Odyssey block buffer containing 0.1% triton x-100 and 1% goat serum). After 30-60 minutes of block, 7.5 μL of primary anti-TFEB (rabbit) antibody is added for a final dilution of 1:200 antibody in 15 μL blocking buffer. Plates are incubated overnight at 4° C. The following day, plates are washed again into PBS, 90 μL with 5 washes, all PBS is aspirated from the wells and the cells are incubated for 1 hr in 1:1000 goat-anti rabbit Alexa 488 secondary antibody, also containing 10 μg/mL Hoechst 33342. After the 1 hr room temperature incubation, plates are washed a final time into PBS, sealed with foil and imaged with an automated epifluorescence microscopy (PerkinElmer Operetta CLS). Four different fields were imaged per well using ×20 magnification for DAPI and FITC filter sets. Images were quantified using PerkinElmer Harmony software, briefly: apply flatfield correction (basic/advanced) for input images. Use the Find Nuclei building block with channel set at Hoechst to find the nuclei. Use the Find cytoplasm building block with channel set to Alexa 488 to find the cytoplasm. Use select cell region with Channel set at Alexa 488 and region of interest as Nuclei and define outer border at 0 μm and inner at 45 μm to cover complete nuclei. Use select cell region with Channel set at Alexa 488 and region of interest as ring region and define outer border at −5 μm and inner at 0 μm to define a ring around the nucleus. Use the find calculate intensity parameter to calculate intensity of the nuclear region and the ring region. Define results as Number of nuclei and ratio of A/B where A is Intensity of Nuclei and B is intensity of the ring region.
The compound numbers correspond to the compound numbers above in Tables A or B. Compounds having an activity designated as “++++” provided an AC50 of ≤2.00 μM; compounds having an activity designated as “+++” provided an AC50 of 2.01-8.00 μM; compounds having an activity designated as “++” provided an AC50 of 8.01-9.99 μM; and compounds having an activity designated as “+” provided an AC50 of ≥10.00 μM.

| Structure (SMILES) | AC50 (Homo sapiens, HeLa, 2 h) [nM] | AC50 [nM] |
| --- | --- | --- |
| CC(c1cccc(F)c1N1CCC(CN2C[C@@H](C)O[C@H](C)C2)CC1)S(=O)(=O)c1ccc(S(=O)(=O)N(C)C)cc1 (single isomer, unassigned) [Compound A-885, 4-[1-[2-(4-{[2,6-dimethylmorpholin-4-yl]methyl}piperidin-1-yl)-3-fluorophenyl]ethanesulfonyl]-N,N-dimethylbenzene-1-sulfonamide] | ≤ 2000 |  |
| C[C@H](c1cccc(F)c1N1CCC(F)(F)CC1)S(=O)(=O)c1ccc(S(=N)(=O)N(C)C)cc1 (single isomer, unassigned) [Compound A-890] |  | 2010 to 8000 |
| C[C@H](c1cccc(F)c1N1CCC(F)(F)CC1)S(=O)(=O)c1ccc(S(=N)(=O)N(C)C)cc1 (single isomer, unassigned) [Compound A-891] |  | ≥ 10000 |
| C[C@H](c1cccc(F)c1N1CCC(C2(N3CCOCC3)CC2)CC1)S(=O)(=O)c1ccc(S(=N)(=O)N(C)C)cc1 (single isomer, unassigned) [Compound A-892] | 8010 to 9990 |  |
| C[C@H](c1cccc(F)c1N1CCC(C2(N3CCOCC3)CC2)CC1)S(=O)(=O)c1ccc(S(=N)(=O)N(C)C)cc1 (single isomer, unassigned) [Compound A-893] |  | ≥ 10000 |
| C[C@H](c1cccc(F)c1N1CCCCC1)S(=O)(=O)c1ccc(S(=N)(=O)N(C)C)cc1 (single isomer, unassigned) [Compound A-894] |  | 2010 to 8000 |
| C[C@H](c1cccc(F)c1N1CCCCC1)S(=O)(=O)c1ccc(S(=N)(=O)N(C)C)cc1 (single isomer, unassigned) [Compound A-895] |  | ≥ 10000 |
| C[C@@H]1CN(CC2CCN(c3c(F)cccc3[C@@H](C)S(=O)(=O)c3ccc(S(=N)(=O)N(C)C)cc3)CC2)C[C@H](C)O1 (single isomer, unassigned) [Compound A-902] | ≥ 10000 |  |
| C[C@@H]1CN(CC2CCN(c3c(F)cccc3[C@@H](C)S(=O)(=O)c3ccc(S(=N)(=O)N(C)C)cc3)CC2)C[C@H](C)O1 (single isomer, unassigned) [Compound A-903] |  | ≥ 10000 |
| CN(C)S(=O)(=O)c1ccc(S(=O)(=O)Nc2cccc(F)c2N2CCC(N3CCC4(CCOC4)C3)CC2)cc1 (single isomer, unassigned) [Compound A-909, N1-(2-(4-(2-oxa-7-azaspiro[4.4]nonan-7-yl)piperidin-1-yl)-3-fluorophenyl)-N4,N4-dimethylbenzene-1,4-disulfonamide] | 2010 to 8000 |  |
| CN(C)S(=O)(=O)c1ccc(S(=O)(=O)Nc2cccc(F)c2N2CCC(N3CCC4(CCOC4)C3)CC2)cc1 (single isomer, unassigned) [Compound A-910, N1-(2-(4-(2-oxa-7-azaspiro[4.4]nonan-7-yl)piperidin-1-yl)-3-fluorophenyl)-N4,N4-dimethylbenzene-1,4-disulfonamide] |  | 2010 to 8000 |
| CC(c1cccc(F)c1N1CCCCC1)S(=O)(=O)c1ccc(S(=O)(=O)N(C)C)cc1 (single isomer, unassigned) [Compound A-911, 4-((1-(3-fluoro-2-(piperidin-1-yl)phenyl)ethyl)sulfonyl)-N,N-dimethylbenzenesulfonamide] | ≤ 2000 |  |
| CC(c1cccc(F)c1N1CCCCC1)S(=O)(=O)c1ccc(S(=O)(=O)N(C)C)cc1 (single isomer, unassigned) [Compound A-912, 4-((1-(3-fluoro-2-(piperidin-1-yl)phenyl)ethyl)sulfonyl)-N,N-dimethylbenzenesulfonamide] |  | ≤ 2000 |
| CC(c1cccc(F)c1N1CCC(CN2C3CCC2COC3)CC1)S(=O)(=O)c1ccc(S(C)(=O)=O)cc1 (single isomer, unassigned) [Compound A-913, 8-((1-(2-fluoro-6-(1-((4-(methylsulfonyl)phenyl)sulfonyl)ethyl)phenyl)piperidin-4-yl)methyl)-3-oxa-8-azabicyclo[3.2.1]octane] |  | ≤ 2000 |
| CC(c1cccc(F)c1N1CCC(CN2C3CCC2COC3)CC1)S(=O)(=O)c1ccc(S(C)(=O)=O)cc1 (single isomer, unassigned) [Compound A-914, 8-((1-(2-fluoro-6-(1-((4-(methylsulfonyl)phenyl)sulfonyl)ethyl)phenyl)piperidin-4-yl)methyl)-3-oxa-8-azabicyclo[3.2.1]octane] |  | ≥ 10000 |
| CC(C)S(=N)(=O)c1ccc(S(=O)(=O)[C@H](C)c2cccc(F)c2N2CCCCC2)cc1 (single isomer, unassigned) [Compound A-923] | ≥ 10000 |  |

| Structure (SMILES) | AC50 (Homo sapiens, HeLa, 2 h) [nM] | AC50 [nM] |
| --- | --- | --- |
| Cc1ccc(S(=O)(=O)C(C)c2cccc(F)c2N2CCC(CN3C4CCC3COC4)CC2)cc1 (single isomer, unassigned) [Compound A-924, 8-((1-(2-fluoro-6-(1-tosylethyl)phenyl)piperidin-4-yl)methyl)-3-oxa-8-azabicyclo[3.2.1]octane] |  | ≤ 2000 |
| CC(c1cccc(F)c1N1CCC(C)(C(F)F)CC1)S(=O)(=O)c1ccc(S(=O)(=O)N(C)C)cc1 (single isomer, unassigned) [Compound A-925, 4-((1-(2-(4-(difluoromethyl)-4-methylpiperidin-1-yl)-3-fluorophenyl)ethyl)sulfonyl)-N,N-dimethylbenzenesulfonamide] | ≤ 2000 |  |
| C[C@@H](c1cccc(F)c1N1CCCCC1)S(=O)(=O)c1ccc(S(=N)(=O)N(C)C)cc1 (single isomer, unassigned) [Compound A-929] | ≤ 2000 |  |
| C[C@@H](c1cccc(F)c1N1CCCCC1)S(=O)(=O)c1ccc(S(=N)(=O)N(C)C)cc1 (single isomer, unassigned) [Compound A-930] |  | 2010 to 8000 |
| C[C@@H]1CN(CC2CCN(c3c(F)cccc3[C@H](C)S(=O)(=O)c3ccc(S(=N)(=O)N(C)C)cc3)CC2)C[C@H](C)O1 (single isomer, unassigned) [Compound A-931] | ≤ 2000 |  |
| C[C@@H](c1cccc(F)c1N1CCC(C(F)(F)F)CC1)S(=O)(=O)c1ccc(S(=N)(=O)N(C)C)cc1 (single isomer, unassigned) [Compound A-932] | ≤ 2000 |  |
| CC(c1cccc(F)c1N1CCC(C)(C(F)F)CC1)S(=O)(=O)c1ccc(S(=O)(=O)N(C)C)cc1 (single isomer, unassigned) [Compound A-933, 4-((1-(2-(4-(difluoromethyl)-4-methylpiperidin-1-yl)-3-fluorophenyl)ethyl)sulfonyl)-N,N-dimethylbenzenesulfonamide] |  | ≤ 2000 |
| C[C@@H](c1cccc(F)c1N1CCC(C(F)(F)F)CC1)S(=O)(=O)c1ccc(S(=N)(=O)N(C)C)cc1 (single isomer, unassigned) [Compound A-935] |  | ≤ 2000 |
| C[C@@H](c1cccc(F)c1N1CCC(F)(F)CC1)S(=O)(=O)c1ccc(S(=N)(=O)N(C)C)cc1 (single isomer, unassigned) [Compound A-936] | ≤ 2000 |  |
| CC(c1cccc(F)c1N1CCCCC1)S(=O)(=O)c1ccc(S(=N)(=O)C(F)F)cc1 (single isomer, unassigned) [Compound A-937, (difluoromethyl)(4-((1-(3-fluoro-2-(piperidin-1-yl)phenyl)ethyl)sulfonyl)phenyl)(imino)-l6-sulfanone] |  | 2010 to 8000 |
| CC(c1cccc(F)c1N1CCCCC1)S(=O)(=O)c1ccc(S(=N)(=O)C(F)F)cc1 (single isomer, unassigned) [Compound A-938, (difluoromethyl)(4-((1-(3-fluoro-2-(piperidin-1-yl)phenyl)ethyl)sulfonyl)phenyl)(imino)-l6-sulfanone] |  | ≥ 10000 |
| CC(c1cccc(F)c1N1CCCCC1)S(=O)(=O)c1ccc(S(=N)(=O)C(F)F)cc1 (single isomer, unassigned) [Compound A-939, (difluoromethyl)(4-((1-(3-fluoro-2-(piperidin-1-yl)phenyl)ethyl)sulfonyl)phenyl)(imino)-l6-sulfanone] |  | 2010 to 8000 |
| CC(c1cccc(F)c1N1CCCCC1)S(=O)(=O)c1ccc(S(=N)(=O)C(F)F)cc1 (single isomer, unassigned) [Compound A-940, (difluoromethyl)(4-((1-(3-fluoro-2-(piperidin-1-yl)phenyl)ethyl)sulfonyl)phenyl)(imino)-l6-sulfanone] |  | ≤ 2000 |
| CC(c1cccc(F)c1N1CCC(COC(C)(C)C)CC1)S(=O)(=O)c1ccc(S(=N)(=O)N(C)C)cc1 (single isomer, unassigned) [Compound A-946, 4-((1-(2-(4-(tert-butoxymethyl)piperidin-1-yl)-3-fluorophenyl)ethyl)sulfonyl)-N,N-dimethylbenzenesulfonimidamide] |  | ≤ 2000 |
| CC(c1cccc(F)c1N1CCCCC1)S(=O)(=O)c1ccc2c(c1)CCS2(=N)=O (single isomer, unassigned) [Compound A-959] | ≥ 10000 |  |
